According to patent US8586611B2 (priority 2005, dated 2013):

Columns and labels:
Assay type in all cases: in vivo
Phytophthora infestans = assay: whole plant or invertebrate; conditions: tomato late blight
Plasmopara viticola = assay: Test B: grape downy mildew, spray 24 h after inoculation (disease rating, 100 = 100% disease control)
Method in brief: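 Grape seedlings were inoculated with Plasmopara viticola and held 24 h saturated at 20 °C, then sprayed to run-off with compound suspension (acetone/water with 250 ppm Trem 014; 200 ppm ≈ 500 g/ha). After 5 days at 20 °C and 24 h saturation, disease was rated from 0 to 100% control versus untreated.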

[1] = test system: Pseudoperonospora cubensis; assay: Test A: cucumber downy mildew, spray the day before inoculation (disease rating, 100 = 100% disease control)
Description: The test compounds were first dissolved in acetone in an amount equal to 3% of the final volume and then suspended at the desired concentration (in ppm) in acetone and purified water (50/50 mix by volume) containing 250 ppm of the surfactant Trem® 014 (polyhydric alcohol esters). The resulting test suspensions were then used in tests A-E. Spraying a 200 ppm test suspension to the point of run-off on the test plants was the equivalent of a rate of 500 g/ha.
The test suspension was sprayed to the point of run-off on cucumber seedlings. The following day the seedlings were inoculated with a spore suspension of Pseudoperonospora cubensis (the causal agent of cucumber downy mildew) and incubated in a saturated atmosphere at 20° C. for 24 h, and then moved to a growth chamber at 20° C. for 6 days, after which disease ratings were made.
Results for Tests A-F are given in Table A. In the table, a rating of 100 indicates 100% disease control and a rating of 0 indicates no disease control (relative to the controls). A dash (-) indicates no test results.

[2] = test system: Erysiphe graminis f. sp. tritici; assay: Test E: wheat powdery mildew, spray the day before inoculation (disease rating, 100 = 100% disease control)
Method in brief: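 Wheat seedlings sprayed to run-off with compound suspended in acetone/water 50/50 with 250 ppm Trem 014 (200 ppm equivalent to 500 g/ha); inoculated next day with Erysiphe graminis f. sp. tritici spore dust. Kept 7 days at 20° C, then rated 0–100% disease control versus controls.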

[3] = spray the day before inoculation, compounds without asterisk (not 40 or 10 ppm)
[4] = spray 24 h after inoculation, compounds without asterisk (not 40 or 10 ppm)
[5] = sprayed the day before inoculation, unmarked compounds (no asterisk, not 40 or 10 ppm)
[6] = sprayed 24 h after inoculation, unmarked compounds (no asterisk, not 40 or 10 ppm)
[7] = sprayed the day before inoculation, 7 days at 20° C., unmarked compounds (no asterisk, not 40 or 10 ppm)

## C[C@H](c1ccccc1)N(C)C(=O)c1csc(C2CCN(C(=O)Cc3cc(F)cc(C(F)(F)F)c3)CC2)n1 [compound 40]
Phytophthora infestans; [3]
  Test C disease rating (100 = 100% disease control, 0 = no disease control): 60%
Plasmopara viticola; [4]
  Test B disease rating (100 = 100% disease control, 0 = no disease control): 76%
[1]; [3]
  Test A disease rating (100 = 100% disease control, 0 = no disease control): 98%
[2]; [3]
  Test E disease rating (100 = 100% disease control, 0 = no disease control): 0%

## C[C@H](c1ccccc1)N(C)C(=O)c1csc(C2CCN(C(=O)Cc3cccc(C(F)(F)F)c3F)CC2)n1 [compound 42]
Phytophthora infestans; [3]
  Test C disease rating (100 = 100% disease control, 0 = no disease control): 100%
Plasmopara viticola; [4]
  Test B disease rating (100 = 100% disease control, 0 = no disease control): 31%
[1]; [3]
  Test A disease rating (100 = 100% disease control, 0 = no disease control): 99%
[2]; [3]
  Test E disease rating (100 = 100% disease control, 0 = no disease control): 21%

## Cc1cc(C)cc(CC(=O)N2CCC(c3nc(C(=O)N(C)[C@H](C)c4ccccc4)cs3)CC2)c1 [compound 43]
Phytophthora infestans; [3]
  Test C disease rating (100 = 100% disease control, 0 = no disease control): 100%
Plasmopara viticola; [4]
  Test B disease rating (100 = 100% disease control, 0 = no disease control): 83%
[1]; [3]
  Test A disease rating (100 = 100% disease control, 0 = no disease control): 100%
[2]; [3]
  Test E disease rating (100 = 100% disease control, 0 = no disease control): 21%

## C[C@H](c1ccccc1)N(C)C(=O)c1csc(C2CCN(C(=O)Cc3ccccc3OC(F)(F)F)CC2)n1 [compound 45]
Phytophthora infestans; [3]
  Test C disease rating (100 = 100% disease control, 0 = no disease control): 98%
Plasmopara viticola; [4]
  Test B disease rating (100 = 100% disease control, 0 = no disease control): 70%
[1]; [3]
  Test A disease rating (100 = 100% disease control, 0 = no disease control): 95%
[2]; [3]
  Test E disease rating (100 = 100% disease control, 0 = no disease control): 0%

## C[C@H](c1ccccc1)N(C)C(=O)c1csc(C2CCN(C(=O)Cc3cccc(OC(F)(F)F)c3)CC2)n1 [compound 49]
Phytophthora infestans; [3]
  Test C disease rating (100 = 100% disease control, 0 = no disease control): 67%
Plasmopara viticola; [4]
  Test B disease rating (100 = 100% disease control, 0 = no disease control): 83%
[1]; [3]
  Test A disease rating (100 = 100% disease control, 0 = no disease control): 97%
[2]; [3]
  Test E disease rating (100 = 100% disease control, 0 = no disease control): 85%

## C[C@H](c1ccccc1)N(C)C(=O)c1csc(C2CCN(C(=O)Nc3cccc(C(F)(F)F)c3)CC2)n1 [compound 155]
Phytophthora infestans; [3]
  Test C disease rating (100 = 100% disease control, 0 = no disease control): 31%
Plasmopara viticola; [4]
  Test B disease rating (100 = 100% disease control, 0 = no disease control): 41%
[1]; [3]
  Test A disease rating (100 = 100% disease control, 0 = no disease control): 100%
[2]; [3]
  Test E disease rating (100 = 100% disease control, 0 = no disease control): 0%

## CN(Cc1ccccc1)C(=O)c1csc(C2CCN(C(=O)Cc3ccccc3Cl)CC2)n1 [compound 161]
Phytophthora infestans; [3]
  Test C disease rating (100 = 100% disease control, 0 = no disease control): 15%
Plasmopara viticola; [4]
  Test B disease rating (100 = 100% disease control, 0 = no disease control): 14%
[1]; [3]
  Test A disease rating (100 = 100% disease control, 0 = no disease control): 0%
[2]; [3]
  Test E disease rating (100 = 100% disease control, 0 = no disease control): 42%

## C[C@@H](NC(=O)c1csc(C2CCN(C(=O)Cc3ccccc3Cl)CC2)n1)c1ccccc1 [compound 261]
Phytophthora infestans; [5]
  Test C disease rating (100 = 100% disease control, 0 = no disease control): 31
Plasmopara viticola; [6]
  Test B disease rating (100 = 100% disease control, 0 = no disease control): 0
[1]; [5]
  Test A disease rating (100 = 100% disease control, 0 = no disease control): 93
[2]; [7]
  Test E disease rating (100 = 100% disease control, 0 = no disease control): 21

## O=C(NCc1ccccc1)c1csc(C2CCN(C(=O)Cc3ccccc3Cl)CC2)n1 [compound 262]
Phytophthora infestans; [5]
  Test C disease rating (100 = 100% disease control, 0 = no disease control): 52
Plasmopara viticola; [6]
  Test B disease rating (100 = 100% disease control, 0 = no disease control): 6
[1]; [5]
  Test A disease rating (100 = 100% disease control, 0 = no disease control): 94
[2]; [7]
  Test E disease rating (100 = 100% disease control, 0 = no disease control): 0

## O=C(NC1Cc2ccccc2C1)c1csc(C2CCN(C(=O)Cc3ccccc3Cl)CC2)n1 [compound 265]
Phytophthora infestans; [5]
  Test C disease rating (100 = 100% disease control, 0 = no disease control): 0
Plasmopara viticola; [6]
  Test B disease rating (100 = 100% disease control, 0 = no disease control): 34
[1]; [5]
  Test A disease rating (100 = 100% disease control, 0 = no disease control): 0
[2]; [7]
  Test E disease rating (100 = 100% disease control, 0 = no disease control): 47

## O=C(Cc1ccccc1Cl)N1CCC(c2nc(C(=O)N3CCc4ccccc4C3)cs2)CC1 [compound 267]
Phytophthora infestans; [5]
  Test C disease rating (100 = 100% disease control, 0 = no disease control): 21
Plasmopara viticola; [6]
  Test B disease rating (100 = 100% disease control, 0 = no disease control): 6
[1]; [5]
  Test A disease rating (100 = 100% disease control, 0 = no disease control): 95
[2]; [7]
  Test E disease rating (100 = 100% disease control, 0 = no disease control): 0

## CC1CCN(C(=O)c2csc(C3CCN(C(=O)Cc4ccccc4Cl)CC3)n2)CC1 [compound 268]
Phytophthora infestans; [5]
  Test C disease rating (100 = 100% disease control, 0 = no disease control): 36
Plasmopara viticola; [6]
  Test B disease rating (100 = 100% disease control, 0 = no disease control): 6
[1]; [5]
  Test A disease rating (100 = 100% disease control, 0 = no disease control): 0
[2]; [7]
  Test E disease rating (100 = 100% disease control, 0 = no disease control): 0

## O=C(Cc1ccccc1Cl)N1CCC(c2nc(C(=O)N3CCCC3c3cccnc3)cs2)CC1 (centres unmarked) [compound 269]
Phytophthora infestans; [5]
  Test C disease rating (100 = 100% disease control, 0 = no disease control): 0
Plasmopara viticola; [6]
  Test B disease rating (100 = 100% disease control, 0 = no disease control): 40
[1]; [5]
  Test A disease rating (100 = 100% disease control, 0 = no disease control): 0
[2]; [7]
  Test E disease rating (100 = 100% disease control, 0 = no disease control): 0

## C[C@@H](NC(=O)c1csc(C2CCN(C(=O)Cc3cccc(C(F)(F)F)c3)CC2)n1)c1ccc(Br)cc1 [compound 270]
Phytophthora infestans; [5]
  Test C disease rating (100 = 100% disease control, 0 = no disease control): 0
Plasmopara viticola; [6]
  Test B disease rating (100 = 100% disease control, 0 = no disease control): 0
[1]; [5]
  Test A disease rating (100 = 100% disease control, 0 = no disease control): 0
[2]; [7]
  Test E disease rating (100 = 100% disease control, 0 = no disease control): 0

## N-[(1R)-2,3-dihydro-1H-inden-1-yl]-N-methyl-2-[1-[[5-methyl-3-(trifluoromethyl)-1H-pyrazol-1-yl]acetyl]-4-piperidinyl]-4-thiazolecarboxamide [Compound 178]
Phytophthora infestans; [3]
  Test C disease rating (100 = 100% disease control, 0 = no disease control): 100%
Plasmopara viticola; [4]
  Test B disease rating (100 = 100% disease control, 0 = no disease control): 99%
[1]; [3]
  Test A disease rating (100 = 100% disease control, 0 = no disease control): 100%
[2]; [3]
  Test E disease rating (100 = 100% disease control, 0 = no disease control): 0%

## N-methyl-1-[1-[[5-methyl-3-(trifluoromethyl)-1H-pyrazol-1-yl]acetyl]-4-piperidinyl]-N-[(1R)-1,2,3,4-tetrahydro-1-naphthalenyl]-1H-pyrazole-4-carboxamide [Compound 233]
Phytophthora infestans; [3]
  Test C disease rating (100 = 100% disease control, 0 = no disease control): 91%
Plasmopara viticola; [4]
  Test B disease rating (100 = 100% disease control, 0 = no disease control): 51%
[1]; [3]
  Test A disease rating (100 = 100% disease control, 0 = no disease control): 96%
[2]; [3]
  Test E disease rating (100 = 100% disease control, 0 = no disease control): 29%

## N-methyl-2-[1-[[5-methyl-3-(trifluoromethyl)-1H-pyrazol-1-yl]acetyl]-4-piperidinyl]-N-(1,2,3,4-tetrahydro-1-naphthalenyl)-4-thiazolecarboxamide [Compound 188]
Phytophthora infestans; [3]
  Test C disease rating (100 = 100% disease control, 0 = no disease control): 29%
Plasmopara viticola; [4]
  Test B disease rating (100 = 100% disease control, 0 = no disease control): 6%
[1]; [3]
  Test A disease rating (100 = 100% disease control, 0 = no disease control): 90%
[2]; [3]
  Test E disease rating (100 = 100% disease control, 0 = no disease control): 86%

## N-methyl-2-[1-[[5-methyl-3-(trifluoromethyl)-1H-pyrazol-1-yl]acetyl]-4-piperidinyl]-N-(1,2,3,4-tetrahydro-2-methyl-1-naphthalenyl)-4-thiazolecarboxamide [Compound 193]
Phytophthora infestans; [3]
  Test C disease rating (100 = 100% disease control, 0 = no disease control): 31%
Plasmopara viticola; [4]
  Test B disease rating (100 = 100% disease control, 0 = no disease control): 20%
[1]; [3]
  Test A disease rating (100 = 100% disease control, 0 = no disease control): 93%
[2]; [3]
  Test E disease rating (100 = 100% disease control, 0 = no disease control): 21%

## N-methyl-2-[1-[[5-methyl-3-(trifluoromethyl)-1H-pyrazol-1-yl]acetyl]-4-piperidinyl]-N-[(1R)-1-phenylethyl]-4-thiazolecarboxamide [Compound 70]
Phytophthora infestans; [3]
  Test C disease rating (100 = 100% disease control, 0 = no disease control): 33%
Plasmopara viticola; [4]
  Test B disease rating (100 = 100% disease control, 0 = no disease control): 0%
[1]; [3]
  Test A disease rating (100 = 100% disease control, 0 = no disease control): 0%
[2]; [3]
  Test E disease rating (100 = 100% disease control, 0 = no disease control): 0%

## N-methyl-2-[1-[[5-methyl-3-(trifluoromethyl)-1H-pyrazol-1-yl]acetyl]-4-piperidinyl]-N-[(1R)-1-phenylpropyl]-4-oxazolecarboxamide [Compound 152]
Phytophthora infestans; [3]
  Test C disease rating (100 = 100% disease control, 0 = no disease control): 0%
Plasmopara viticola; [4]
  Test B disease rating (100 = 100% disease control, 0 = no disease control): 0%
[1]; [3]
  Test A disease rating (100 = 100% disease control, 0 = no disease control): 0%
[2]; [3]
  Test E disease rating (100 = 100% disease control, 0 = no disease control): 0%
